Tests used:
oval-leafed pondweed = test: Test Example 1: herbicidal activity, application before weed generation under submerged conditions (Table 16, symbol C); format: in vivo, oval-leafed pondweed (Monochoria vaginalis); conditions: amount of applied herbicide 320 g/ha
In short: (§1)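 Alluvial soil was flooded to 4 cm depth, weed seeds were sown mixed and 2.5-leaf rice seedlings were transplanted. On sowing day, the compound's emulsion, diluted in water to a set dose, was applied to the water surface. Plants grew at 25–30 °C and were scored 0–5 after three weeks.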

blackgrass [1] = test: Test Example 4: herbicidal effect by soil treatment (Table 19, symbol J); format: in vivo, blackgrass (Alopecurus myosuroides); conditions: amount of applied herbicide 320 g/ha
In short: (§2)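 Applied as a water-diluted emulsion, the compound was sprayed onto soil covering newly sown seeds. Evaluation came three weeks after application, in a greenhouse held at 25° C. to 30° C.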

southern crabgrass [2] = test: Test Example 5: herbicidal effect by foliage application, plastic box (Table 20, symbol F); format: in vivo, southern crabgrass (Digitaria ciliaris); conditions: amount of applied herbicide 320 g/ha; foliage application after 14-day growth; evaluated three weeks after application
In short: (§3)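 Sow seeds spot-wise in sterilized diluvial soil; cover with ~1.5 cm soil. Grow 14 days in greenhouse, 25° C. to 30° C. Spray foliage with emulsion diluted to predetermined amount. Rate effect after 3 weeks.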

redroot pigweed [3] = test: Test Example 5: herbicidal effect by foliage application, plastic box (Table 20, symbol N); format: in vivo, redroot pigweed (Amaranthus retroflexus); conditions: amount of applied herbicide 320 g/ha; foliage application after 14-day growth; evaluated three weeks after application
In short: as §3

barnyard grass [4] = test: Test Example 3: herbicidal effect by foliage application, Wagner pot (Table 18, symbol H); format: in vivo, barnyard grass (Echinochloa crus-galli); conditions: 320 g/ha
In short: (§4)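 Plants were sown in alluvial soil held under 0.1–0.5 cm standing water and grown 14 days in a greenhouse at 25–30 °C. An emulsifiable formulation, water-diluted to the set dose, was then sprayed onto the foliage, and effects were scored three weeks later using previously defined criteria.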

persian speedwell [5] = test: Test Example 5: herbicidal effect by foliage application, plastic box (Table 20, symbol R); format: in vivo, Persian speedwell (Veronica persica); conditions: amount of applied herbicide 320 g/ha; foliage application after 14-day growth; evaluated three weeks after application
In short: as §3

wild oat [6] = test: Test Example 5: herbicidal effect by foliage application, plastic box (Table 20, symbol I); format: in vivo, wild oat (Avena fatua); conditions: amount of applied herbicide 320 g/ha; foliage application after 14-day growth; evaluated three weeks after application
In short: as §3

chickweed [7] = test: Test Example 4: herbicidal effect by soil treatment (Table 19, symbol P); format: in vivo, common chickweed (Stellaria media); conditions: amount of applied herbicide 320 g/ha
In short: as §2

barnyard grass [8] = test: Test Example 5: herbicidal effect by foliage application, plastic box (Table 20, symbol H); format: in vivo, barnyard grass (Echinochloa crus-galli); conditions: amount of applied herbicide 320 g/ha; foliage application after 14-day growth; evaluated three weeks after application
In short: as §3

late watergrass = test: Test Example 1: herbicidal activity, application before weed generation under submerged conditions (Table 16, symbol A); format: in vivo, late watergrass (Echinochloa oryzicola); conditions: amount of applied herbicide 320 g/ha
In short: as §1

blackgrass [9] = test: Test Example 5: herbicidal effect by foliage application, plastic box (Table 20, symbol J); format: in vivo, blackgrass (Alopecurus myosuroides); conditions: amount of applied herbicide 320 g/ha; foliage application after 14-day growth; evaluated three weeks after application
In short: as §3

windgrass [10] = test: Test Example 4: herbicidal effect by soil treatment (Table 19, symbol L); format: in vivo, windgrass (Apera spica-venti); conditions: amount of applied herbicide 320 g/ha
In short: as §2

rice flat sedge = test: Test Example 3: herbicidal effect by foliage application, Wagner pot (Table 18, symbol E); format: in vivo, rice flat sedge (Cyperus iria); conditions: 320 g/ha
In short: as §4

chickweed [11] = test: Test Example 5: herbicidal effect by foliage application, plastic box (Table 20, symbol P); format: in vivo, common chickweed (Stellaria media); conditions: amount of applied herbicide 320 g/ha; foliage application after 14-day growth; evaluated three weeks after application
In short: as §3

lambsquarters [12] = test: Test Example 5: herbicidal effect by foliage application, plastic box (Table 20, symbol O); format: in vivo, lambsquarters (Chenopodium album); conditions: amount of applied herbicide 320 g/ha; foliage application after 14-day growth; evaluated three weeks after application
In short: as §3

velvetleaf [13] = test: Test Example 4: herbicidal effect by soil treatment (Table 19, symbol M); format: in vivo, velvetleaf (Abutilon theophrasti); conditions: amount of applied herbicide 320 g/ha
In short: as §2

lambsquarters [14] = test: Test Example 4: herbicidal effect by soil treatment (Table 19, symbol O); format: in vivo, lambsquarters (Chenopodium album); conditions: amount of applied herbicide 320 g/ha
In short: as §2

green foxtail [15] = test: Test Example 4: herbicidal effect by soil treatment (Table 19, symbol G); format: in vivo, green foxtail (Setaria viridis); conditions: amount of applied herbicide 320 g/ha
In short: as §2

Chinese sprangletop = test: Test Example 3: herbicidal effect by foliage application, Wagner pot (Table 18, symbol D); format: in vivo, chinese sprangletop (Leptochloa chinensis); conditions: 320 g/ha
In short: as §4

green foxtail [16] = test: Test Example 5: herbicidal effect by foliage application, plastic box (Table 20, symbol G); format: in vivo, green foxtail (Setaria viridis); conditions: amount of applied herbicide 320 g/ha; foliage application after 14-day growth; evaluated three weeks after application
In short: as §3

windgrass [17] = test: Test Example 5: herbicidal effect by foliage application, plastic box (Table 20, symbol L); format: in vivo, windgrass (Apera spica-venti); conditions: amount of applied herbicide 320 g/ha; foliage application after 14-day growth; evaluated three weeks after application
In short: as §3

velvetleaf [18] = test: Test Example 5: herbicidal effect by foliage application, plastic box (Table 20, symbol M); format: in vivo, velvetleaf (Abutilon theophrasti); conditions: amount of applied herbicide 320 g/ha; foliage application after 14-day growth; evaluated three weeks after application
In short: as §3

redroot pigweed [19] = test: Test Example 4: herbicidal effect by soil treatment (Table 19, symbol N); format: in vivo, redroot pigweed (Amaranthus retroflexus); conditions: amount of applied herbicide 320 g/ha
In short: as §2

Japanese bulrush = test: Test Example 1: herbicidal activity, application before weed generation under submerged conditions (Table 16, symbol B); format: in vivo, Japanese bulrush (Schoenoplectus juncoides); conditions: amount of applied herbicide 320 g/ha
In short: as §1

Italian ryegrass [20] = test: Test Example 5: herbicidal effect by foliage application, plastic box (Table 20, symbol K); format: in vivo, Italian ryegrass (Lolium multiflorum); conditions: amount of applied herbicide 320 g/ha; foliage application after 14-day growth; evaluated three weeks after application
In short: as §3

wild oat [21] = test: Test Example 4: herbicidal effect by soil treatment (Table 19, symbol I); format: in vivo, wild oat (Avena fatua); conditions: amount of applied herbicide 320 g/ha
In short: as §2

Italian ryegrass [22] = test: Test Example 4: herbicidal effect by soil treatment (Table 19, symbol K); format: in vivo, Italian ryegrass (Lolium multiflorum); conditions: amount of applied herbicide 320 g/ha
In short: as §2

southern crabgrass [23] = test: Test Example 4: herbicidal effect by soil treatment (Table 19, symbol F); format: in vivo, southern crabgrass (Digitaria ciliaris); conditions: amount of applied herbicide 320 g/ha
In short: as §2

persian speedwell [24] = test: Test Example 4: herbicidal effect by soil treatment (Table 19, symbol R); format: in vivo, Persian speedwell (Veronica persica); conditions: amount of applied herbicide 320 g/ha
In short: as §2

barnyard grass [25] = test: Test Example 4: herbicidal effect by soil treatment (Table 19, symbol H); format: in vivo, barnyard grass (Echinochloa crus-galli); conditions: amount of applied herbicide 320 g/ha
In short: as §2

Structure (SMILES)	Herbicidal effect, C: oval-leafed pondweed (oval-leafed pondweed)	Herbicidal effect by soil treatment, J: blackgrass (blackgrass [1])	Herbicidal effect by foliage application, F: southern crabgrass (southern crabgrass [2])	Herbicidal effect by foliage application, N: redroot pigweed (redroot pigweed [3])	herbicidal effect on barnyard grass (H) (barnyard grass [4])	Herbicidal effect by foliage application, R: persian speedwell (persian speedwell [5])	Herbicidal effect by foliage application, I: wild oat (wild oat [6])	Herbicidal effect by soil treatment, P: chickweed (chickweed [7])	Herbicidal effect by foliage application, H: barnyard grass (barnyard grass [8])	Herbicidal effect, A: late watergrass (late watergrass)	Herbicidal effect by foliage application, J: blackgrass (blackgrass [9])	Herbicidal effect by soil treatment, L: windgrass (windgrass [10])	herbicidal effect on rice flat sedge (E) (rice flat sedge)	Herbicidal effect by foliage application, P: chickweed (chickweed [11])	Herbicidal effect by foliage application, O: lambsquarters (lambsquarters [12])	Herbicidal effect by soil treatment, M: velvetleaf (velvetleaf [13])	Herbicidal effect by soil treatment, O: lambsquarters (lambsquarters [14])	Herbicidal effect by soil treatment, G: green foxtail (green foxtail [15])	herbicidal effect on Chinese sprangletop (D) (Chinese sprangletop)	Herbicidal effect by foliage application, G: green foxtail (green foxtail [16])	also measured
CCCC(=O)Oc1c(C)nn(C)c(=O)c1-c1c(-c2ccc(OC(F)(F)F)cc2)sc2c(Cl)cccc12 [4-079]	0 (Herbicidal rate of 5% or less (almost no effect))	0 (Herbicidal rate of 5% or less (almost no effect))	0 (Herbicidal rate of 5% or less (almost no effect))	3 (Herbicidal rate of 40% or more and less than 70%)	2 (Herbicidal rate of 20% or more and less than 40%)	5 (Herbicidal rate of 90% or more (almost completely withered))	0 (Herbicidal rate of 5% or less (almost no effect))	0 (Herbicidal rate of 5% or less (almost no effect))	0 (Herbicidal rate of 5% or less (almost no effect))	2 (Herbicidal rate of 20% or more and less than 40%)	0 (Herbicidal rate of 5% or less (almost no effect))	0 (Herbicidal rate of 5% or less (almost no effect))	2 (Herbicidal rate of 20% or more and less than 40%)	5 (Herbicidal rate of 90% or more (almost completely withered))	3 (Herbicidal rate of 40% or more and less than 70%)	0 (Herbicidal rate of 5% or less (almost no effect))	0 (Herbicidal rate of 5% or less (almost no effect))	0 (Herbicidal rate of 5% or less (almost no effect))	2 (Herbicidal rate of 20% or more and less than 40%)	0 (Herbicidal rate of 5% or less (almost no effect))	Herbicidal effect by foliage application, L: windgrass (windgrass [17]): 3 (Herbicidal rate of 40% or more and less than 70%); Herbicidal effect by foliage application, M: velvetleaf (velvetleaf [18]): 4 (Herbicidal rate of 70% or more and less than 90%); Herbicidal effect by soil treatment, N: redroot pigweed (redroot pigweed [19]): 2 (Herbicidal rate of 20% or more and less than 40%); Herbicidal effect, B: Japanese bulrush (Japanese bulrush): 0 (Herbicidal rate of 5% or less (almost no effect)); Herbicidal effect by foliage application, K: Italian ryegrass (Italian ryegrass [20]): 0 (Herbicidal rate of 5% or less (almost no effect)); Herbicidal effect by soil treatment, I: wild oat (wild oat [21]): 0 (Herbicidal rate of 5% or less (almost no effect)); Herbicidal effect by soil treatment, K: Italian ryegrass (Italian ryegrass [22]): 0 (Herbicidal rate of 5% or less (almost no effect)); Herbicidal effect by soil treatment, F: southern crabgrass (southern crabgrass [23]): 0 (Herbicidal rate of 5% or less (almost no effect)); Herbicidal effect by soil treatment, R: persian speedwell (persian speedwell [24]): 3 (Herbicidal rate of 40% or more and less than 70%); Herbicidal effect by soil treatment, H: barnyard grass (barnyard grass [25]): 0 (Herbicidal rate of 5% or less (almost no effect))
COc1ccccc1-c1sc2c(C)cccc2c1-c1c(O)c(C)nn(C)c1=O [4-106]	0 (Herbicidal rate of 5% or less (almost no effect))	0 (Herbicidal rate of 5% or less (almost no effect))	1 (Herbicidal rate of 5% or more and less than 20%)	4 (Herbicidal rate of 70% or more and less than 90%)	4 (Herbicidal rate of 70% or more and less than 90%)	5 (Herbicidal rate of 90% or more (almost completely withered))	2 (Herbicidal rate of 20% or more and less than 40%)	1 (Herbicidal rate of 5% or more and less than 20%)	1 (Herbicidal rate of 5% or more and less than 20%)	2 (Herbicidal rate of 20% or more and less than 40%)	4 (Herbicidal rate of 70% or more and less than 90%)	3 (Herbicidal rate of 40% or more and less than 70%)	5 (Herbicidal rate of 90% or more (almost completely withered))	5 (Herbicidal rate of 90% or more (almost completely withered))	3 (Herbicidal rate of 40% or more and less than 70%)	0 (Herbicidal rate of 5% or less (almost no effect))	1 (Herbicidal rate of 5% or more and less than 20%)	1 (Herbicidal rate of 5% or more and less than 20%)	0 (Herbicidal rate of 5% or less (almost no effect))	0 (Herbicidal rate of 5% or less (almost no effect))	Herbicidal effect by foliage application, L: windgrass (windgrass [17]): 5 (Herbicidal rate of 90% or more (almost completely withered)); Herbicidal effect by foliage application, M: velvetleaf (velvetleaf [18]): 3 (Herbicidal rate of 40% or more and less than 70%); Herbicidal effect by soil treatment, N: redroot pigweed (redroot pigweed [19]): 4 (Herbicidal rate of 70% or more and less than 90%); Herbicidal effect, B: Japanese bulrush (Japanese bulrush): 0 (Herbicidal rate of 5% or less (almost no effect)); Herbicidal effect by foliage application, K: Italian ryegrass (Italian ryegrass [20]): 4 (Herbicidal rate of 70% or more and less than 90%); Herbicidal effect by soil treatment, I: wild oat (wild oat [21]): 0 (Herbicidal rate of 5% or less (almost no effect)); Herbicidal effect by soil treatment, K: Italian ryegrass (Italian ryegrass [22]): 0 (Herbicidal rate of 5% or less (almost no effect)); Herbicidal effect by soil treatment, F: southern crabgrass (southern crabgrass [23]): 3 (Herbicidal rate of 40% or more and less than 70%); Herbicidal effect by soil treatment, R: persian speedwell (persian speedwell [24]): 1 (Herbicidal rate of 5% or more and less than 20%); Herbicidal effect by soil treatment, H: barnyard grass (barnyard grass [25]): 0 (Herbicidal rate of 5% or less (almost no effect))
